{"source": "patent US20230374035A1", "about": "“RAS INHIBITORS” (Revolution Medicines, Inc., priority 2019, published 2023)", "key": {"[1]": {"biological_target": "KRAS G12C (Homo sapiens, UniProt P01116+P62937, G12C)", "sequence (P01116 1-188 isoform P01116-2 G12C)": "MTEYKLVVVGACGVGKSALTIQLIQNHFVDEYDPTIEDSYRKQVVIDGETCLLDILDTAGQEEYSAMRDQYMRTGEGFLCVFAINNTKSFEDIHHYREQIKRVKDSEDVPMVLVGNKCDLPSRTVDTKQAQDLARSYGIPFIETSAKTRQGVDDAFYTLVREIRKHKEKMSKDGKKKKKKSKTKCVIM", "sequence (P62937 whole entry)": "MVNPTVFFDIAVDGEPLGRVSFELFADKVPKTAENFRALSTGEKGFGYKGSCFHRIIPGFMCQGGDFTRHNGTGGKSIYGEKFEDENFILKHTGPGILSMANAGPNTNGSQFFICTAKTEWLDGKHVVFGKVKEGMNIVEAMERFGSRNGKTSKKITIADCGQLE", "assay": "Disruption of BRAF RBD interaction with K-Ras (FRET / MOA assay)", "format": "biochemical", "details": "read-out: KRAS G12C FRET data IC50", "procedure": "(§1) Compound is present in plate wells as a 10-point 3-fold dilution series starting at a final concentration of 30 μM. […] Compounds that facilitate disruption of a Ras:RAF complex are identified as those eliciting a decrease in the TR-FRET ratio relative to DMSO control wells.\n(§2) Note—The following protocol describes a procedure for monitoring disruption of K-Ras G12C (GMP-PNP) binding to BRAF^RBD by a compound of the invention. This protocol may also be executed substituting other Ras proteins or nucleotides.\n(§3) The purpose of this biochemical assay was to measure the ability of test compounds to facilitate ternary complex formation between a nucleotide-loaded K-Ras isoform and Cyclophilin A; the resulting ternary complex disrupts binding to a BRAF^RBD construct, inhibiting K-Ras signaling through a RAF effector. Data is reported as IC50 values.\n(§4) Compound was present in plate wells as a 10-point 3-fold dilution series starting at a final concentration of 30 μM. […] Compounds that facilitate disruption of a K-Ras:RAF complex were identified as those eliciting a decrease in the TR-FRET ratio relative to DMSO control wells."}, "[2]": {"biological_target": "KRAS Q61H (Homo sapiens, UniProt P01116+P62937, Q61H)", "sequence (P01116 1-188 isoform P01116-2 Q61H)": "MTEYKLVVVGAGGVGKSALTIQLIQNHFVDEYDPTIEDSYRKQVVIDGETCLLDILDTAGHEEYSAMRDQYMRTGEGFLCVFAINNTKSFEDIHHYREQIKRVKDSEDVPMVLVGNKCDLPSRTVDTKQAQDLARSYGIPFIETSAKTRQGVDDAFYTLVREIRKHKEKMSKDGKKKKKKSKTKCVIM", "sequence (P62937 whole entry)": "as the sequence (P62937 whole entry) above", "assay": "Disruption of BRAF RBD interaction with K-Ras (FRET / MOA assay)", "format": "biochemical", "details": "read-out: KRAS Q61H FRET data IC50", "procedure": "as §1, §2, §3, §4"}, "[3]": {"biological_target": "KRAS G13C (Homo sapiens, UniProt P01116+P62937, G13C)", "sequence (P01116 1-188 isoform P01116-2 G13C)": "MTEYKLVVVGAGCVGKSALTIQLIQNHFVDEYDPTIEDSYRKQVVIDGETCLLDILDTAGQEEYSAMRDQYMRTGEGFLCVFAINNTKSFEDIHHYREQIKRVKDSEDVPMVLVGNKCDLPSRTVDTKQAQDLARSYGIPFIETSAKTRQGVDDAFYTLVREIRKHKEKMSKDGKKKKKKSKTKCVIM", "sequence (P62937 whole entry)": "as the sequence (P62937 whole entry) above", "assay": "Disruption of BRAF RBD interaction with K-Ras (FRET / MOA assay)", "format": "biochemical", "details": "read-out: KRAS G13C FRET data IC50", "procedure": "as §1, §2, §3, §4"}, "[4]": {"biological_target": "KRAS G12S (Homo sapiens, UniProt P01116+P62937, G12S)", "sequence (P01116 1-188 isoform P01116-2 G12S)": "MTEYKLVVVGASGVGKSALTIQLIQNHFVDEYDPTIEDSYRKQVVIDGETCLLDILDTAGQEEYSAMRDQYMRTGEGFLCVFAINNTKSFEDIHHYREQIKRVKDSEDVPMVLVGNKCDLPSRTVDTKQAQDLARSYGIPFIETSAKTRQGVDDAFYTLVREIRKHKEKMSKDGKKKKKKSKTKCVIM", "sequence (P62937 whole entry)": "as the sequence (P62937 whole entry) above", "assay": "Disruption of BRAF RBD interaction with K-Ras (FRET / MOA assay)", "format": "biochemical", "procedure": "as §1, §2, §3, §4"}, "[5]": {"biological_target": "NRAS Q61K (Homo sapiens, UniProt P01111+P62937, Q61K)", "sequence (P01111 whole entry Q61K)": "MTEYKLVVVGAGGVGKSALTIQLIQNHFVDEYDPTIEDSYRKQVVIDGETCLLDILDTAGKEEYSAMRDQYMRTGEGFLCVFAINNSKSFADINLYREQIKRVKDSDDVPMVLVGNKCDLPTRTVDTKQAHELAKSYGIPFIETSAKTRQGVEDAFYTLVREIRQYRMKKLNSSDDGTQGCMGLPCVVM", "sequence (P62937 whole entry)": "as the sequence (P62937 whole entry) above", "assay": "Disruption of BRAF RBD interaction with Ras (FRET / MOA assay)", "format": "biochemical", "details": "read-out: NRAS Q61K FRET data IC50", "outline": "(§5)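 TR-FRET readout of BRAF RBD binding to nucleotide-loaded Ras (GMP-PNP), where compound promotes a ternary complex with Cyclophilin A that displaces RAF. Compound tested as a 10-point 3-fold dilution series from 30 μM final. Disruption is a drop in TR-FRET ratio versus DMSO wells; IC50 reported.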"}, "[6]": {"biological_target": "NRAS Q61R (Homo sapiens, UniProt P01111+P62937, Q61R)", "sequence (P01111 whole entry Q61R)": "as the sequence (P01111 whole entry Q61K) above, with K61R counted along it", "sequence (P62937 whole entry)": "as the sequence (P62937 whole entry) above", "assay": "Disruption of BRAF RBD interaction with Ras (FRET / MOA assay)", "format": "biochemical", "details": "read-out: NRAS Q61R FRET data IC50", "outline": "as §5"}, "[7]": {"biological_target": "NRAS G12C (Homo sapiens, UniProt P01111+P62937, G12C)", "sequence (P01111 whole entry G12C)": "as the sequence (P01111 whole entry Q61K) above, with G12C, K61Q counted along it", "sequence (P62937 whole entry)": "as the sequence (P62937 whole entry) above", "assay": "Disruption of BRAF RBD interaction with Ras (FRET / MOA assay)", "format": "biochemical", "outline": "as §5"}, "[8]": {"biological_target": "NRAS WT (Homo sapiens, UniProt P01111+P62937)", "sequence (P01111 whole entry)": "as the sequence (P01111 whole entry Q61K) above, with K61Q counted along it", "sequence (P62937 whole entry)": "as the sequence (P62937 whole entry) above", "assay": "Disruption of BRAF RBD interaction with Ras (FRET / MOA assay)", "format": "biochemical", "details": "read-out: NRAS WT FRET data IC50", "outline": "as §5"}, "[9]": {"tested_on": "NCI-H358 (K-Ras G12C)", "assay": "CellTiter-Glo Cell Viability Assay", "format": "cell-based", "details": "Homo sapiens, NCI-H358, 120 h; H358, 5-day treatment"}}}
{"molecule": "CCn1c(-c2cccnc2[C@H](C)OC)c2c3cc(ccc31)-c1cc(O)cc(c1)C[C@H](NC(=O)[C@H](C(C)C)N(C)C(=O)[C@@H]1CCN(C(=O)OC)[C@@H]1c1ccccc1)C(=O)N1CCC[C@H](N1)C(=O)OCC(C)(C)C2", "note": "(atropisomer, axis not shown) [Compound A501]", "values": [{"measurement": "IC50", "setting": "[1]", "result": "< 0.01", "unit": "µM"}, {"measurement": "IC50", "setting": "[2]", "result": "< 0.01", "unit": "µM"}, {"measurement": "IC50", "setting": "[3]", "result": "< 0.01", "unit": "µM"}, {"measurement": "IC50", "setting": "[4]", "result": "< 0.01", "unit": "µM"}, {"measurement": "IC50", "setting": "[5]", "result": "0.01 to 0.1", "unit": "µM"}, {"measurement": "IC50", "setting": "[6]", "result": "0.01 to 0.1", "unit": "µM"}, {"measurement": "IC50", "setting": "[7]", "result": "< 0.01", "unit": "µM"}, {"measurement": "IC50", "setting": "[8]", "result": "< 0.01", "unit": "µM"}, {"measurement": "IC50", "setting": "[9]", "result": "< 0.01", "unit": "µM"}]}
